{
  "source": "PubChem BioAssay AID1963850",
  "about": "(Molecular Pharmacology Branch, DTP, NCI, 2024);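 also: spheroids exposed to drugs for seven days before reading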;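 as to viability, T/C: 100% = DMSO vehicle control viability in luminescence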",
  "test_system": "192522-019-R-J2-PDC complex tumor spheroid viability",
  "experiment": "Anticancer human tumor 192522-019-R-J2-PDC patient-derived colon adenocarcinoma cell line growth inhibition [POLQ]",
  "conditions": "for IC50: curve of first compound; for viability, T/C: stronger effect = lower value",
  "outline": "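Patient-derived tumour cells were co-cultured with HUVEC and mesenchymal stem cells as multicellular spheroids at 37 °C. They were treated with POLQ inhibitors (novobiocin, ART-558, RP6685) alone or combined with other agents. Top concentrations were at or near clinical Cmax (otherwise 10 microM; SN-38 at 1 microM), decreasing in half-log steps.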",
  "key": {"[1]": {"conditions": "second compound 0.0316 µM, first compound 0.0316 µM"}, "[2]": {"conditions": "second compound 0.0316 µM, first compound 0.1 µM"}, "[3]": {"conditions": "second compound 0.0316 µM, first compound 0.316 µM"}, "[4]": {"conditions": "second compound 0.0316 µM, first compound 1 µM"}, "[5]": {"conditions": "second compound 0.0316 µM, first compound 3.16 µM"}, "[6]": {"conditions": "second compound 0.0316 µM, first compound 10 µM"}, "[7]": {"conditions": "second compound 0.1 µM, first compound 0.0316 µM"}, "[8]": {"conditions": "second compound 0.1 µM, first compound 0.1 µM"}, "[9]": {"conditions": "second compound 0.1 µM, first compound 0.316 µM"}, "[10]": {"conditions": "second compound 0.1 µM, first compound 1 µM"}, "[11]": {"conditions": "second compound 0.1 µM, first compound 3.16 µM"}, "[12]": {"conditions": "second compound 0.1 µM, first compound 10 µM"}, "[13]": {"conditions": "second compound 0.316 µM, first compound 0.0316 µM"}, "[14]": {"conditions": "second compound 0.316 µM, first compound 0.1 µM"}, "[15]": {"conditions": "second compound 0.316 µM, first compound 0.316 µM"}, "[16]": {"conditions": "second compound 0.316 µM, first compound 1 µM"}, "[17]": {"conditions": "second compound 0.316 µM, first compound 3.16 µM"}, "[18]": {"conditions": "second compound 0.316 µM, first compound 10 µM"}, "[19]": {"conditions": "second compound 1 µM, first compound 0.0316 µM"}, "[20]": {"conditions": "second compound 1 µM, first compound 0.1 µM"}, "[21]": {"conditions": "second compound 1 µM, first compound 0.316 µM"}, "[22]": {"conditions": "second compound 1 µM, first compound 1 µM"}, "[23]": {"conditions": "second compound 1 µM, first compound 3.16 µM"}, "[24]": {"conditions": "second compound 1 µM, first compound 10 µM"}, "[25]": {"conditions": "second compound 3.16 µM, first compound 0.0316 µM"}, "[26]": {"conditions": "second compound 3.16 µM, first compound 0.1 µM"}, "[27]": {"conditions": "second compound 3.16 µM, first compound 0.316 µM"}, "[28]": {"conditions": "second compound 3.16 µM, first compound 1 µM"}, "[29]": {"conditions": "second compound 3.16 µM, first compound 3.16 µM"}, "[30]": {"conditions": "second compound 3.16 µM, first compound 10 µM"}, "[31]": {"conditions": "second compound 10 µM, first compound 0.0316 µM"}, "[32]": {"conditions": "second compound 10 µM, first compound 0.1 µM"}, "[33]": {"conditions": "second compound 10 µM, first compound 0.316 µM"}, "[34]": {"conditions": "second compound 10 µM, first compound 1 µM"}, "[35]": {"conditions": "second compound 10 µM, first compound 3.16 µM"}, "[36]": {"conditions": "second compound 10 µM, first compound 10 µM"}},
  "data": [
    {"smiles": "CCCS(=O)(=O)Nc1ccc(F)c(C(=O)c2c[nH]c3ncc(-c4ccc(Cl)cc4)cc23)c1F", "note": "+ Nc1ccc(C#CCN(C(=O)Cc2ncc(C(F)(F)F)cc2C(F)(F)F)c2ccc(F)cc2)nn1", "values": [
      {"measurement": "IC50", "setting": "second compound 0.0316 µM", "value": "> 10", "unit": "µM"},
      {"measurement": "IC50", "setting": "second compound 0.1 µM", "value": "> 10", "unit": "µM"},
      {"measurement": "IC50", "setting": "second compound 0.316 µM", "value": "> 10", "unit": "µM"},
      {"measurement": "IC50", "setting": "second compound 1 µM", "value": "> 10", "unit": "µM"},
      {"measurement": "IC50", "setting": "second compound 3.16 µM", "value": "> 10", "unit": "µM"},
      {"measurement": "IC50", "setting": "second compound 10 µM", "value": "> 10", "unit": "µM"},
      {"measurement": "viability, T/C", "setting": "[1]", "value": 109, "unit": "%"},
      {"measurement": "viability, T/C", "setting": "[2]", "value": 95.2, "unit": "%"},
      {"measurement": "viability, T/C", "setting": "[3]", "value": 109, "unit": "%"},
      {"measurement": "viability, T/C", "setting": "[4]", "value": 98.3, "unit": "%"},
      {"measurement": "viability, T/C", "setting": "[5]", "value": 121, "unit": "%"},
      {"measurement": "viability, T/C", "setting": "[6]", "value": 66.9, "unit": "%"},
      {"measurement": "viability, T/C", "setting": "[7]", "value": 106, "unit": "%"},
      {"measurement": "viability, T/C", "setting": "[8]", "value": 107, "unit": "%"},
      {"measurement": "viability, T/C", "setting": "[9]", "value": 104, "unit": "%"},
      {"measurement": "viability, T/C", "setting": "[10]", "value": 99.9, "unit": "%"},
      {"measurement": "viability, T/C", "setting": "[11]", "value": 101, "unit": "%"},
      {"measurement": "viability, T/C", "setting": "[12]", "value": 67.9, "unit": "%"},
      {"measurement": "viability, T/C", "setting": "[13]", "value": 102, "unit": "%"},
      {"measurement": "viability, T/C", "setting": "[14]", "value": 98.7, "unit": "%"},
      {"measurement": "viability, T/C", "setting": "[15]", "value": 99.4, "unit": "%"},
      {"measurement": "viability, T/C", "setting": "[16]", "value": 102, "unit": "%"},
      {"measurement": "viability, T/C", "setting": "[17]", "value": 101, "unit": "%"},
      {"measurement": "viability, T/C", "setting": "[18]", "value": 83.6, "unit": "%"},
      {"measurement": "viability, T/C", "setting": "[19]", "value": 98, "unit": "%"},
      {"measurement": "viability, T/C", "setting": "[20]", "value": 107, "unit": "%"},
      {"measurement": "viability, T/C", "setting": "[21]", "value": 97.9, "unit": "%"},
      {"measurement": "viability, T/C", "setting": "[22]", "value": 110, "unit": "%"},
      {"measurement": "viability, T/C", "setting": "[23]", "value": 125, "unit": "%"},
      {"measurement": "viability, T/C", "setting": "[24]", "value": 94.1, "unit": "%"},
      {"measurement": "viability, T/C", "setting": "[25]", "value": 101, "unit": "%"},
      {"measurement": "viability, T/C", "setting": "[26]", "value": 102, "unit": "%"},
      {"measurement": "viability, T/C", "setting": "[27]", "value": 98.4, "unit": "%"},
      {"measurement": "viability, T/C", "setting": "[28]", "value": 99.9, "unit": "%"},
      {"measurement": "viability, T/C", "setting": "[29]", "value": 113, "unit": "%"},
      {"measurement": "viability, T/C", "setting": "[30]", "value": 86.6, "unit": "%"},
      {"measurement": "viability, T/C", "setting": "[31]", "value": 105, "unit": "%"},
      {"measurement": "viability, T/C", "setting": "[32]", "value": 106, "unit": "%"},
      {"measurement": "viability, T/C", "setting": "[33]", "value": 99.6, "unit": "%"},
      {"measurement": "viability, T/C", "setting": "[34]", "value": 110, "unit": "%"},
      {"measurement": "viability, T/C", "setting": "[35]", "value": 118, "unit": "%"},
      {"measurement": "viability, T/C", "setting": "[36]", "value": 78.1, "unit": "%"}
    ]},
    {"smiles": "CNCc1ccc(-c2[nH]c3cc(F)cc4c3c2CCNC4=O)cc1", "note": "+ Nc1ccc(C#CCN(C(=O)Cc2ncc(C(F)(F)F)cc2C(F)(F)F)c2ccc(F)cc2)nn1", "values": [
      {"measurement": "IC50", "setting": "second compound 0.0316 µM", "value": "> 10", "unit": "µM"},
      {"measurement": "IC50", "setting": "second compound 0.1 µM", "value": "> 10", "unit": "µM"},
      {"measurement": "IC50", "setting": "second compound 0.316 µM", "value": "> 10", "unit": "µM"},
      {"measurement": "IC50", "setting": "second compound 1 µM", "value": "> 10", "unit": "µM"},
      {"measurement": "IC50", "setting": "second compound 3.16 µM", "value": "> 10", "unit": "µM"},
      {"measurement": "IC50", "setting": "second compound 10 µM", "value": "> 10", "unit": "µM"},
      {"measurement": "viability, T/C", "setting": "[1]", "value": 103, "unit": "%"},
      {"measurement": "viability, T/C", "setting": "[2]", "value": 106, "unit": "%"},
      {"measurement": "viability, T/C", "setting": "[3]", "value": 102, "unit": "%"},
      {"measurement": "viability, T/C", "setting": "[4]", "value": 113, "unit": "%"},
      {"measurement": "viability, T/C", "setting": "[5]", "value": 122, "unit": "%"},
      {"measurement": "viability, T/C", "setting": "[6]", "value": 111, "unit": "%"},
      {"measurement": "viability, T/C", "setting": "[7]", "value": 105, "unit": "%"},
      {"measurement": "viability, T/C", "setting": "[8]", "value": 98.7, "unit": "%"},
      {"measurement": "viability, T/C", "setting": "[9]", "value": 110, "unit": "%"},
      {"measurement": "viability, T/C", "setting": "[10]", "value": 102, "unit": "%"},
      {"measurement": "viability, T/C", "setting": "[11]", "value": 104, "unit": "%"},
      {"measurement": "viability, T/C", "setting": "[12]", "value": 105, "unit": "%"},
      {"measurement": "viability, T/C", "setting": "[13]", "value": 107, "unit": "%"},
      {"measurement": "viability, T/C", "setting": "[14]", "value": 106, "unit": "%"},
      {"measurement": "viability, T/C", "setting": "[15]", "value": 96.5, "unit": "%"},
      {"measurement": "viability, T/C", "setting": "[16]", "value": 103, "unit": "%"},
      {"measurement": "viability, T/C", "setting": "[17]", "value": 106, "unit": "%"},
      {"measurement": "viability, T/C", "setting": "[18]", "value": 107, "unit": "%"},
      {"measurement": "viability, T/C", "setting": "[19]", "value": 119, "unit": "%"},
      {"measurement": "viability, T/C", "setting": "[20]", "value": 100, "unit": "%"},
      {"measurement": "viability, T/C", "setting": "[21]", "value": 105, "unit": "%"},
      {"measurement": "viability, T/C", "setting": "[22]", "value": 104, "unit": "%"},
      {"measurement": "viability, T/C", "setting": "[23]", "value": 111, "unit": "%"},
      {"measurement": "viability, T/C", "setting": "[24]", "value": 107, "unit": "%"},
      {"measurement": "viability, T/C", "setting": "[25]", "value": 103, "unit": "%"},
      {"measurement": "viability, T/C", "setting": "[26]", "value": 108, "unit": "%"},
      {"measurement": "viability, T/C", "setting": "[27]", "value": 95.3, "unit": "%"},
      {"measurement": "viability, T/C", "setting": "[28]", "value": 104, "unit": "%"},
      {"measurement": "viability, T/C", "setting": "[29]", "value": 110, "unit": "%"},
      {"measurement": "viability, T/C", "setting": "[30]", "value": 101, "unit": "%"},
      {"measurement": "viability, T/C", "setting": "[31]", "value": 108, "unit": "%"},
      {"measurement": "viability, T/C", "setting": "[32]", "value": 101, "unit": "%"},
      {"measurement": "viability, T/C", "setting": "[33]", "value": 105, "unit": "%"},
      {"measurement": "viability, T/C", "setting": "[34]", "value": 102, "unit": "%"},
      {"measurement": "viability, T/C", "setting": "[35]", "value": 110, "unit": "%"},
      {"measurement": "viability, T/C", "setting": "[36]", "value": 106, "unit": "%"}
    ]}
  ]
}
